Laboratory results reported in PMC12612596, “Real‐time FRET assay for monitoring detyrosination by TMCP1 and VASH2” (Protein Science : A Publication of the Protein Society, 2025).
Where two headings read alike, the source gives them in different places. Blank lines part the entries; values can stand above or below the compound they belong to. Where a SMILES comes first, the peptide text is derived from it.

Assays:
[1] = molecular target: T1, TMCP1 (Homo sapiens, UniProt Q68EN5); assay: TMCP1 FRET enzyme activity assay under altered conditions (inhibitors, salts, metal ions, buffers, competition; substrate FS2); assay type: biochemical; details: for Effect of divalent metal ion on TMCP1 activity (in words): TMCP1 pre-treated with 50 μM EDTA 10 min at room temperature, metal ion >50 μM, 30 min at 37 °C, then FS2
T1 construct: TMCP1 open Reading Frame (ORF) was cloned into pET28A+; 6His (N); made in house; host or cells: Escherichia coli BL21 Star (DE3)
T1 sequence (Q68EN5 1-471): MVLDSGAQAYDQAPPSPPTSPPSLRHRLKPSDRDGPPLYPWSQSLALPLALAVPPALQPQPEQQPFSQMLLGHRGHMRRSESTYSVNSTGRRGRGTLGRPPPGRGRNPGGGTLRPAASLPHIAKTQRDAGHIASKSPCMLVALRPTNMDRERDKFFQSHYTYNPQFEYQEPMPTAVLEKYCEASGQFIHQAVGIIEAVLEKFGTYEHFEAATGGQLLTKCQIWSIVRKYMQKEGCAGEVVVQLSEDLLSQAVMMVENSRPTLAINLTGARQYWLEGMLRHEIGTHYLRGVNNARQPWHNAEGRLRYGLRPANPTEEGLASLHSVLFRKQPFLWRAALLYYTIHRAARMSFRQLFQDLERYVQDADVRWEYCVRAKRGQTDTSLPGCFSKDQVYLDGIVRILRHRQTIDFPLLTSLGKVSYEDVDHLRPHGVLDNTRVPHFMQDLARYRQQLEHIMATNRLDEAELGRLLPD
Description: Protein production and purification steps were previously described (Nicot et al., [2023]). Briefly, TMCP1 open Reading Frame (ORF) was cloned into pET28A+ to produce 6His N‐terminally tagged TMCP1. Transformed Escherichia coli strain BL21 Star (DE3) was grown at 37°C until the optical density (OD600) reached 0.6; then the culture was induced with 0.5 mM isopropyl‐β‐d‐thiogalactoside (IPTG) overnight at 18°C. Cells were pelleted for 15 min at 5000 g and resuspended in a 50 mM Tris–HCl buffer (pH 7.4), 500 mM NaCl, 2 mM TCEP, 0.1% Tween. Cell lysis was performed by sonication followed by centrifugation at 20,000×g for 30 min at 4°C. The supernatant was incubated with pre‐washed Ni‐NTA agarose beads (Qiagen) at 4°C for 2 h. Beads were washed extensively in lysis buffer supplemented with 20 mM imidazole and 0.1% Triton. Elutions were performed in a 50 mM Tris–HCl buffer (pH 7.5), 500 mM NaCl, 250 mM imidazole and 1 mM TCEP. The eluted fractions containing proteins were dialyzed overnight at 4°C against 50 mM Tris–HCl buffer (pH 7.5), 300 mM NaCl, 1 mM TCEP using 10 kDa dialysis cassettes. The dialyzed samples were then concentrated and buffer‐exchanged in a 50 mM Tris–HCl buffer (pH 7.5), 200 mM NaCl, 1 mM TCEP using 10 kDa Amicon centrifugal filter units (Amicon Ultra‐4 Merck Millipore). TMCP1 was then snap frozen and stored at −80°C in aliquots.
For each experiment, a fresh stock solution of the fluorescent peptide substrates (5 mM in DMSO), was prepared and protected from light. […] VASH2/SVPB was used at a final concentration of 235 nM, obtained by diluting a 94 μM stock solution (stored at −80°C) at a 1:400 ratio. Enzymatic kinetics experiments were performed in triplicate by measuring the fluorescence of the FRET peptide substrates cleaved by the two enzymes. The cleavage releases a nitro‐tyrosine residue, which acts as a quencher. Its removal leads to an increase of fluorescence, which was quantified fluorometrically (Ex/Em = 320/420 nm) using a SpectraMax i3x (Molecular Devices) microplate reader.
Data were analyzed using GraphPad Prism, with a dedicated curve fitting applied. A Gaussian bell‐shaped curve was used for the optimal pH study, and dose–response inhibition curves were generated by plotting the concentration of NaCl, EDTA, NS3, etc., against the normalized initial velocity (Vi) corresponding to enzyme activity. Data were normalized so that the curve ranged from 100 to 0% activity.
Optimal pH was established using a 50 mM Tris–HCl buffer, with the pH adjusted to the desired value (ranging 4–11) using 0.1 M NaOH or HCl solutions. For the ionic strength experiments, a 500 mM NaCl stock solution in a 50 mM Tris–HCl buffer was used as a starting point for serial dilution (500–0 mM). For EDTA analysis, a 10 mM stock solution was prepared and fully solubilized by vigorous stirring at 80°C. EDTA (0.004 to 400 μM) was then incubated with TMCP1, for 30 min at 37°C before adding the fluorescent substrate and starting the fluorescence measurement. Subsequently, an identical experiment was conducted using 2‐fold serial dilutions to refine the curve around the previously determined IC50.
For metal ion dependency assays, the enzyme was first incubated with 50 μM of EDTA for 10 min at room temperature. Then, serial dilutions were performed from 100 mM stock solutions of each metal ion (ZnCl₂, CoCl₂, and MnCl₂.).
Finally, the competition assay was performed similarly, except that the 96‐well plate was kept on ice during the serial dilution of the NS3 substrate and its addition into the wells.

[2] = molecular target: T1, TMCP1; details: tubulin as substrate; ref Nicot et al., 2023; cited from earlier work
Description: In addition, considering that TMCP1 is a metallocarboxypeptidase, its metal ion dependency was also assessed (Figure 4e). First, the metal ions present in the active site of TMCP1 were chelated with 50 μM EDTA. Subsequently, ZnCl₂, MnCl₂, or CoCl₂ were added at varying concentrations (>50 μM) to determine their impact on the restoration of enzymatic activity.

[3] = molecular target: T2, VASH2/SVBP (Homo sapiens, UniProt Q86V25+Q8N300); assay: VASH2 FRET inhibition assay (substrate FS2); assay type: biochemical
T2 construct: His (N); T7 (N); made in house; host or cells: Escherichia coli BL21 Star (DE3)
Description: Serial dilutions were prepared prior to enzyme addition (235 nM final concentration) to minimize time‐dependent inhibition effects and to avoid premature covalent modification of the enzyme during the dilution steps. […]

[4] = test system: VASH1; set-up: method as in Feral et al., 2025; details: ref Feral et al., 2025; cited from earlier work
[5] = test system: VASH1/SVBP; assay: LC-MS analysis of NS3 cleavage by VASH1/SVBP; assay type: biochemical
[6] = molecular target: Tubulin MetalloCarboxyPeptidase 1 (TMCP1) (UniProt Q68EN5)

T2 sequence (Q86V25 whole entry, species assumed): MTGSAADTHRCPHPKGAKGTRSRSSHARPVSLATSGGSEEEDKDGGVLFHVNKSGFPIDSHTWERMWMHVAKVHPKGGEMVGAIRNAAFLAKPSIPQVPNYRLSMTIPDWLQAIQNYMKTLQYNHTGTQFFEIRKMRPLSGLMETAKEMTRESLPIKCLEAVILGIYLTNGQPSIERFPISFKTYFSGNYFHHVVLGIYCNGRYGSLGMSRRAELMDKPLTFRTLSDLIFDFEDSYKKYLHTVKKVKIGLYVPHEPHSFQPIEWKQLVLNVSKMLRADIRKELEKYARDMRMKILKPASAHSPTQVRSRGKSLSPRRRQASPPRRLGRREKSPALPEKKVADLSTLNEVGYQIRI
T2 sequence (Q8N300 whole entry partner, species assumed): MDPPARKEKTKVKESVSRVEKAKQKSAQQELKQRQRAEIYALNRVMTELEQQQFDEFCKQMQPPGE

Compound: [Cl-].[Cl-].[Co+2] [CoCl₂]
- Effect of divalent metal ion on TMCP1 activity (in words) ([1]; n = 3): highly effective not only at restoring but even increasing TMCP1 activity, although its effectiveness was reduced at higher concentrations
- Effect of divalent metal ion on TMCP1 activity (in words) ([1]; n = 3, listed as Co^2+): enhance its activity in a concentration‐dependent manner
- Effect of metal ion on TMCP1 (immunoblot, in words) [2]: strongly activated

Compound: O=C(O)CN(CCN(CC(=O)O)CC(=O)O)CC(=O)O [EDTA, reference compound]
- IC50 [1]: 2.15 µM

- TMCP1 activity with EGTA (in words) ([1]; 1 mM EGTA in Tris-HCl buffer): complete loss of enzymatic activity
Compound: O=C(O)CN(CCOCCOCCN(CC(=O)O)CC(=O)O)CC(=O)O [EGTA, reference compound]

- IC50 [3]: 0.42 µM
Compound: CCOC(=O)C1OC1C(=O)N[C@@H](Cc1ccc(O)cc1)C(=O)O (some centres unmarked) [EpoY]
- VASH1 inhibition (in words) [4]: blocking VASH1

Compound: [Cl-].[Cl-].[Mg+2] [MgCl₂]
- TMCP1 activity with MgCl₂ (in words) ([1]; 80 mM PIPES with or without 1 mM MgCl₂, compared to 50 mM Tris-HCl): enzyme activity comparable to those obtained in 50 mM Tris–HCl

Compound: [Cl][Mn][Cl] [MnCl₂]
- Effect of divalent metal ion on TMCP1 activity (in words) ([1]; n = 3): also restored the activity but unlike CoCl₂, it did so in a concentration‐dependent manner
- Effect of divalent metal ion on TMCP1 activity (in words) ([1]; n = 3, listed as Mn^2+): enhance its activity in a concentration‐dependent manner
- Effect of metal ion on TMCP1 (immunoblot, in words) [2]: strongly activated

- Affinity relative to fluorescent peptide (in words) ([1]; NS3 vs FS2 (100 μM) in competition assay): slightly higher affinity
- IC50 ([1]; read-out: IC50, TMCP1 competition by NS3): ~62 µM
- Cleavage of NS3 by VASH1 by LC-MS (in words) [5]: no activity was detected
Compound: CC(=O)N[C@H](C(=O)N[C@@H](CCC(=O)O)C(=O)NCC(=O)N[C@@H](CCC(=O)O)C(=O)NCC(=O)N[C@@H](CCC(=O)O)C(=O)N[C@@H](CCC(=O)O)C(=O)N[C@@H](CCC(=O)O)C(=O)NCC(=O)N[C@@H](CCC(=O)O)C(=O)N[C@@H](CCC(=O)O)C(=O)N[C@@H](Cc1ccc(O)cc1)C(=O)O)C(C)C [NS3] (Ac-VEGEGEEEGEEY-OH)

Compound: [Cl-].[Na+] [NaCl]
- Reduction in TMCP1 activity by NaCl ([1]; NaCl around 100 mM in 50 mM Tris-HCl, FS2, n = 3): 50%
- Inhibition of TMCP1 by NaCl (in words) ([1]; NaCl concentrations above 200 mM, n = 3): almost complete inhibition

- Effect of divalent metal ion on TMCP1 activity (in words) ([1]; n = 3): did not restore the enzymatic activity
- Effect of divalent metal ion on TMCP1 activity (in words) ([1]; n = 3, listed as Zn^2+): inhibits the enzyme
Compound: [Cl-].[Cl-].[Zn+2] [ZnCl₂]
- Effect of metal ion on TMCP1 (immunoblot, in words) [2]: inhibited

- IC50 of the competing non-fluorescent peptide NS3 on cleavage of the fluorogenic substrate FS2 (100 μM) by TMCP1, real-time FRET enzymatic assay [6]: 62 µM
Compound: NS3 (natural substrate 3, non-fluorescent peptide of the last 12 amino acids of the α-tubulin C-terminal tail)
